Assay results reported in article PMC8401404 (Molecules, 2021).
Counter-ions that a name gives are not always drawn.

What was measured:
[1] = system: human lung fibroblast cell line MRC-5; assay: MTS cytotoxicity assay, 2D cell culture, normal lung fibroblasts; settings: read-out: Cytotoxicity Assay IC50 ± SD; MRC-5 2D; MRC-5 normal lung fibroblasts, 2D, 72 h, MTS; n = 2
E. coli ATCC 25922 = assay: Broth microdilution testing (CLSI); format: cell-based, Escherichia coli; settings: broth microdilution, 16–24h at 37 °C; read-out: MIC E. coli ATCC 25922
Experimental: (§1) Broth microdilution testing was performed according to CLSI (Clinical Laboratory Standards Institute) guidelines. MIC (minimal inhibitory concentration) value was defined as the last tested concentration of compound at which there is no visible growth of bacteria. […] Clinical and Laboratory Standards Institute (CLSI) guidelines.

A549 [2] = assay: MTS cytotoxicity assay, 2D cell culture; settings: read-out: Cytotoxicity Assay IC50 ± SD; A549 2D, 72 h, MTS; n = 2
HCC827 [3] = assay: MTS cytotoxicity assay, 2D cell culture; settings: read-out: Cytotoxicity Assay IC50 ± SD; HCC827 2D, 72 h, MTS; n = 2
NCI-H358 [4] = assay: MTS cytotoxicity assay, 2D cell culture; settings: read-out: Cytotoxicity Assay IC50 ± SD; NCI-H358 2D, 72 h, MTS; n = 2
A549 [5] = assay: BrdU proliferation assay, 2D cell culture; format: cell-based, human; settings: A549, 2D, BrdU, n = 2, read-out: Proliferation Assay IC50 ± SD
HCC827 [6] = assay: BrdU proliferation assay, 2D cell culture; format: cell-based, human; settings: HCC827, 2D, BrdU, n = 2, read-out: Proliferation Assay IC50 ± SD
NCI-H358 [7] = assay: BrdU proliferation assay, 2D cell culture; format: cell-based, human; settings: NCI-H358, 2D, n = 2, read-out: Proliferation Assay IC50 ± SD
S. cerevisiae ATCC 7752 = assay: Broth microdilution testing (CLSI); format: cell-based, Saccharomyces cerevisiae; settings: broth microdilution, 16–24h at 37 °C; read-out: MIC S. cerevisiae ATCC 7752
Experimental: as §1

A549 [8] = assay: Cytotoxicity (viability) assay, 3D hanging drop cell culture; settings: read-out: Cytotoxicity Assay IC50 ± SD; A549 3D; A549, 3D hanging drop spheres, 72 h; n = 2
HCC827 [9] = assay: as above; settings: read-out: Cytotoxicity Assay IC50 ± SD; HCC827 3D; HCC827, 3D hanging drop spheres, 72 h; n = 2
NCI-H358 [10] = assay: as above; settings: read-out: Cytotoxicity Assay IC50 ± SD; NCI-H358 3D; NCI-H358, 3D hanging drop spheres, 72 h; n = 2
S. aureus ATCC 29213 = assay: Broth microdilution testing (CLSI); format: cell-based, Staphylococcus aureus; settings: broth microdilution, 16–24h at 37 °C; read-out: MIC S. aureus ATCC 29213
Experimental: as §1

A549 [11] = assay: BrdU proliferation assay, 3D hanging drop cell culture; format: cell-based, human; settings: A549, 3D, BrdU, n = 2, read-out: Proliferation Assay IC50 ± SD
HCC827 [12] = assay: as above; format: cell-based, human; settings: HCC827, 3D, BrdU, n = 2, read-out: Proliferation Assay IC50 ± SD
NCI-H358 [13] = assay: as above; format: cell-based, human; settings: NCI-H358, 3D, n = 2, read-out: Proliferation Assay IC50 ± SD
[14] = system: poly(dAdT)2 (DNA, polymer) AT; assay: CD titration; settings: Na+ (sodium cacodylate, I = 0.05 M), pH 7.0, 25 °C, polynucleotide 3.0 × 10^-5 M
[15] = system: poly dA-poly dT (DNA, polymer) A/T; assay: UV thermal melting at 260 nm; settings: Na+ (sodium cacodylate, I = 0.05 M), pH 7.0, r = [compound]/[polynucleotide phosphate] = 0.3, error ±0.5, per base
[16] = system: poly dA-poly dT (DNA, polymer) A/T; assay: CD titration; settings: Na+ (sodium cacodylate, I = 0.05 M), pH 7.0, 25 °C, polynucleotide 3.0 × 10^-5 M
[17] = system: poly(dAdT)2 (DNA, polymer) AT; assay: UV thermal melting at 260 nm; settings: Na+ (sodium cacodylate, I = 0.05 M), pH 7.0, r = [compound]/[polynucleotide phosphate] = 0.3, error ±0.5, per base

N#CC(=Cc1ccc(-c2ccc(Cl)cc2)o1)c1nc2cc([N+](=O)[O-])ccc2[nH]1 [Compound 21, (E,Z)-3-[5-(4-Chlorophenyl)furan-2-yl]-2-(5(6)-nitrobenzimidazol-2-yl)acrylonitrile]
IC50 [1]: > 50 µM
MIC (E. coli ATCC 25922): >100 µM
IC50 (A549 [2]): > 50 µM
IC50 (HCC827 [3]): > 50 µM
IC50 (NCI-H358 [4]): 3.58 ± 0.95 µM
IC50 (A549 [5]): > 50 µM
IC50 (HCC827 [6]): > 50 µM
IC50 (NCI-H358 [7]): > 50 µM
MIC (S. cerevisiae ATCC 7752): >100 µM
IC50 (A549 [8]): > 100 µM
IC50 (HCC827 [9]): > 100 µM
IC50 (NCI-H358 [10]): > 100 µM
MIC (S. aureus ATCC 29213): >100 µM
IC50 (A549 [11]): > 100 µM
IC50 (HCC827 [12]): > 100 µM
IC50 (NCI-H358 [13]): > 100 µM

Clc1ccc(-c2ccc(-c3nc4cc(C5=NCCN5)ccc4[nH]3)o2)cc1 (as salt: hydrochloride) [Compound 15, 2-[5-(4-Chlorophenyl)furan-2-yl]-5(6)-(4,5-dihydro-1H-imidazol-2-yl)benzimidazole hydrochloride]
binding [14]: yes
ΔTm [15]: 11.7 °C
binding [16]: yes
melting point: 262 to 269 °C
ΔTm [17]: 6.2 °C
